The record followed here is patent US9545105B2, “1-(heterocyclic carbonyl) piperidines” (BAYER INTELLECTUAL PROPERTY GMBH, priority 2010, dated 2017).

Series [1] can be described thus: log P by HPLC on reversed-phase column (C 18), EEC Directive 79/831 Annex V.A8. The series is classed as physicochemical. The note with it: HPLC on reversed-phase column (C 18); 40° C.; 0.1% aqueous formic acid and acetonitrile; linear gradient 10% to 90% acetonitrile. In a few lines: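 Column at 40° C; mobile phases 0.1% aqueous formic acid and acetonitrile, linear gradient 10% to 90% acetonitrile. Calibrated with unbranched alkan-2-ones (3 to 16 carbons) of known log P; values from retention times by linear interpolation between two successive alkanones.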

For a further series, the system named is Alternaria solani. The series can be described thus: In vivo preventive test on Alternaria solani (tomato). The note with it: 500 ppm of active ingredient, evaluated 7 days after inoculation. The essentials:
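Young tomato plants were sprayed preventively with compound in DMF/alkylarylpolyglycolether diluted in water, then inoculated one day later with A. solani spores. Incubation was 1 day at about 22 °C and 100% RH, then about 20 °C and 96% RH. Efficacy was scored 7 days after inoculation (0% = untreated control, 100% = no disease).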

A further series relates to Sphaerotheca fuliginea. Put plainly: In vivo preventive test on Sphaerotheca fuliginea (cucumber). The note with it: 500 ppm of active ingredient, evaluated 7 days after inoculation. The protocol: Solvent: 49 parts by weight of N,N-dimethylformamide Emulsifier: 1 part by weight of Alkylarylpolyglycolether To produce a suitable preparation of active compound, 1 part by weight of active compound is mixed with the stated amounts of solvent and emulsifier, and the concentrate is diluted with water to the desired concentration. To test for preventive activity, young plants are sprayed with the preparation of active compound at the stated rate of application. One day after this treatment, the plants are inoculated with an aqueous spore suspension of Sphaerotheca fuliginea. Then the plants are placed in a greenhouse at approximately 23° C. and a relative atmospheric humidity of approximately 70%. The test is evaluated 7 days after the inoculation. 0% means an efficacy which corresponds to that of the untreated control, while an efficacy of 100% means that no disease is observed.

Series [2] concerns Blumeria graminis f. sp. hordei. The series can be described thus: In vivo preventive test on Blumeria graminis (barley). Particulars: 500 ppm of active ingredient, evaluated 7 days after inoculation. The protocol:
(§1) Solvent: 49 parts by weight of N,N-dimethylacetamide Emulsifier: 1 part by weight of alkylaryl polyglycol ether To produce a suitable preparation of active compound, 1 part by weight of active compound or active compound combination is mixed with the stated amounts of solvent and emulsifier, and the concentrate is diluted with water to the desired concentration. To test for preventive activity, young plants are sprayed with the preparation of active compound or active compound combination at the stated rate of application. After the spray coating has been dried, the plants are dusted with spores of Blumeria graminis f. sp. hordei. The plants are placed in the greenhouse at a temperature of approximately 18° C. and a relative atmospheric humidity of approximately 80% to promote the development of mildew pustules. The test is evaluated 7 days after the inoculation. 0% means an efficacy which corresponds to that of the untreated control, while an efficacy of 100% means that no disease is observed.

The subject of a further series is Septoria tritici. Put plainly: In vivo preventive test on Septoria tritici (wheat). The note with it: 500 ppm of active ingredient, evaluated 21 days after inoculation. The protocol: as §1, with “sprayed” for “dusted”, “a spore suspension” for “spores”, “Septoria tritici. The plants remain for 48 hours in an incubation cabinet at approximately 20° C. and a relative atmospheric humidity of approximately 100% and afterwards for 60 hours at approximately 15° C. in a translucent incubation cabinet at a relative atmospheric humidity of approximately 100%.” for “Blumeria graminis f. sp. hordei.”, “15°” for “18°”, “80%.” for “80% to promote the development of mildew pustules.”, “21” for “7”

A further series deals with Pyrenophora teres. Put plainly: In vivo preventive test on Pyrenophora teres (barley). The note with it: 500 ppm of active ingredient, evaluated 7-9 days after inoculation. The essentials: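 Young barley plants sprayed with compound in DMF/alkylaryl polyglycol ether emulsion; inoculated with P. teres spores one day later. 48 h at 22 °C, 100% humidity, then greenhouse ~20 °C, ~80% humidity; efficacy scored 7-9 days post-inoculation, 0% = untreated, 100% = no disease.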

The subject of the next series is Uromyces appendiculatus. Put plainly: In vivo preventive test on Uromyces appendiculatus (bean rust). Particulars: 100 ppm of active ingredient, evaluated 10 days after inoculation. The protocol: (§2) Solvent: 24.5 parts by weight of acetone • 24.5 parts by weight of N,N-dimethylacetamide Emulsifier: 1 part by weight of alkylaryl polyglycol ether To produce a suitable preparation of active compound, 1 part by weight of active compound is mixed with the stated amounts of solvent and emulsifier, and the concentrate is diluted with water to the desired concentration. To test for preventive activity, young plants are sprayed with the preparation of active compound at the stated rate of application. After the spray coating has dried on, the plants are inoculated with an aqueous spore suspension of the causal agent of bean rust (Uromyces appendiculatus) and then remain for 1 day in an incubation cabinet at approximately 20° C. and a relative atmospheric humidity of 100%. The plants are then placed in a greenhouse at approximately 21° C. and a relative atmospheric humidity of approximately 90%. The test is evaluated 10 days after the inoculation. 0% means an efficacy which corresponds to that of the untreated control, while an efficacy of 100% means that no disease is observed.

The subject of another series is Venturia inaequalis. The series can be described thus: In vivo preventive test on Venturia inaequalis (apple scab). Particulars: 100 ppm of active ingredient, evaluated 10 days after inoculation. Here is the method:
as §2, with “conidia” for “spore”, “apple scab (Venturia inaequalis)” for “bean rust (Uromyces appendiculatus)”

As to `CCc1nn(C)c(F)c1C(=O)N1CCCCC1c1ccccc1C` (stereo not drawn) [Example 4], in series [1], the logP came to 3.06. Moreover, the Efficacy in the series with Alternaria solani is 95%; in the series with Sphaerotheca fuliginea, 95%; in series [2], 78%; in the series on Septoria tritici it was 100%; in the series on Pyrenophora teres, 100%.

`Cc1nn(C)c(F)c1C(=O)N1CCCCC1c1ccccc1Cl` (stereo not drawn) [Example 36] gave a logP in series [1] of 2.89. Moreover, the Efficacy turned out to be 95% in the series with Alternaria solani, 89% in the series on Sphaerotheca fuliginea, 80% in the series with Septoria tritici and 100% with Pyrenophora teres.

As for `CCc1nn(C)c(F)c1C(=O)N1CCCCC1c1ccccc1Cl` (stereo not drawn) [Example 37], the logP in series [1] is recorded as 3.19. The Efficacy worked out at 95% with Alternaria solani, 70% with Sphaerotheca fuliginea, 80% in the series on Septoria tritici and 95% with Pyrenophora teres.

On to `CCc1nn(C)c(F)c1C(=O)N1CCCCC1c1cccc(Cl)c1` (stereo not drawn) [Example 43], for which the logP in series [1] was 3.31. In addition, the Efficacy in the series on Alternaria solani came out at 95%; in the series with Septoria tritici, 80%; in the series on Pyrenophora teres it was 100%.

In the case of `Cc1nn(C)c(F)c1C(=O)N1CCCCC1c1cccc(Cl)c1` (stereo not drawn) [Example 44], the logP in series [1] was 2.94. Moreover, the Efficacy in the series with Alternaria solani turned out to be 95%; in the series on Sphaerotheca fuliginea it was 89%; in the series on Septoria tritici it was 90%; in the series with Pyrenophora teres it was 100%.

In turn, `Cc1nn(C)c(F)c1C(=O)N1CCCCC1c1ccc(Cl)cc1` (stereo not drawn) [Example 51] registered a logP in series [1] of 2.98. Besides, the Efficacy amounted to 95% in the series with Alternaria solani, 100% in the series on Septoria tritici and 100% in the series with Pyrenophora teres.

`Cc1nn(C)c(F)c1C(=O)N1CCCCC1c1cccc(Cl)c1Cl` (stereo not drawn) [Example 73] displayed a logP in series [1] of 3.25. The Efficacy in the series on Alternaria solani is on record as 95%; in the series on Sphaerotheca fuliginea, 85%; in the series with Septoria tritici, 80%; in the series on Pyrenophora teres, 100%.

In the case of `Cc1nn(C)c(F)c1C(=O)N1CCCCC1c1ccc(Cl)cc1Cl` (stereo not drawn) [Example 76], the logP in series [1] worked out at 3.39. For the same molecule, the Efficacy in the series with Alternaria solani amounted to 90%; with Septoria tritici, 100%; in the series on Pyrenophora teres it was 100%.

Take `Cc1nn(C)c(F)c1C(=O)N1CCCCC1c1cc(Cl)ccc1Cl` (stereo not drawn) [Example 83]: the logP in series [1] is given as 3.29. The Efficacy is listed as 95% in the series with Alternaria solani, 94% in the series on Sphaerotheca fuliginea, 80% in the series on Septoria tritici and 100% with Pyrenophora teres.

`Cc1cc(C(=O)N2CCCCC2c2ccccc2Br)c(C)o1` (stereo not drawn) [Example 86] returned a logP in series [1] of 3.96. Further, the Efficacy amounted to 90% with Alternaria solani, 78% in the series on Septoria tritici and 90% in the series with Pyrenophora teres.

As to `CCc1nn(C)c(F)c1C(=O)N1CCCCC1c1ccccc1Br` (stereo not drawn) [Example 87], the logP in series [1] stood at 3.25. In addition, the figures for the Efficacy with Alternaria solani, in the series on Septoria tritici and in the series on Pyrenophora teres were 95%, 89% and 100%, respectively.

`Cc1nn(C)c(F)c1C(=O)N1CCCCC1c1ccccc1Br` (stereo not drawn) [Example 88] registered a logP in series [1] of 2.99. Also, the Efficacy with Alternaria solani worked out at 95%; with Sphaerotheca fuliginea, 94%; with Septoria tritici, 89%; in the series on Pyrenophora teres, 95%.

The molecule `CCc1nn(C)c(F)c1C(=O)N1CCCCC1c1ccc2ccccc2c1` (stereo not drawn) [Example 117] yielded a logP in series [1] of 3.58. Besides, the Efficacy stood at 95% with Alternaria solani, 90% in the series with Septoria tritici and 95% with Pyrenophora teres.

As for `Cc1nn(C)c(F)c1C(=O)N1CCCCC1c1ccc2ccccc2c1` (stereo not drawn) [Example 118], the logP in series [1] was found to be 3.21. In addition, the results for the Efficacy in the series on Alternaria solani, in the series with Septoria tritici and in the series with Pyrenophora teres were 95%, 100% and 100%, respectively.

In turn, `Cn1nc(C(F)F)c(C(=O)N2CCCCC2Cc2ccc(F)cc2)c1F` (stereo not drawn) [Example 156] yielded a lipophilicity (logP) in series [1] of 3.11. In addition, the Efficacy in the series on Alternaria solani is listed as 100%; in the series with Sphaerotheca fuliginea, 75%; in the series on Pyrenophora teres, 100%.

Molecule `CC(c1ccccc1Cl)C1CCCCN1C(=O)c1c(C(F)F)nn(C)c1F` (stereo not drawn) [Example 163] yielded a log partition coefficient (logP) in series [1] of 3.72. For the same molecule, the Efficacy with Alternaria solani is reported as 100%; in the series on Sphaerotheca fuliginea, 98%; in the series on Pyrenophora teres, 100%.

With `CCC(c1ccccc1Cl)C1CCCCN1C(=S)c1c(C(F)F)nn(C)c1F` (stereo not drawn) [Example 165], the logP in series [1] is 4.95. Further, the Efficacy in the series with Alternaria solani is 90%; in the series with Sphaerotheca fuliginea it was 100%; in the series on Uromyces appendiculatus, 73%; with Venturia inaequalis, 99%; with Pyrenophora teres, 100%.

Molecule `CC(c1ccccc1Cl)C1CCCCN1C(=S)c1c(C(F)F)nn(C)c1F` (stereo not drawn) [Example 166] showed a logP in series [1] of 4.53. The Efficacy in the series on Alternaria solani, in the series with Sphaerotheca fuliginea and in the series on Pyrenophora teres was 100% in each case.

As to `CCc1nn(C)c(F)c1C(=O)N1CCCCC1CCc1ccccc1` (stereo not drawn) [Example 176], the logP in series [1] was 3.25. The Efficacy in the series on Alternaria solani came out at 90%; in the series on Septoria tritici it was 70%; in the series with Pyrenophora teres, 95%.

With `Cn1nc(C(F)F)c(C(=O)N2CCCCC2CCOc2ccc(C(F)(F)F)cn2)c1F` (stereo not drawn) [Example 196], the logP in series [1] turned out to be 3.57. The figures for the Efficacy in the series on Alternaria solani, in the series with Sphaerotheca fuliginea and with Pyrenophora teres were 100%, 70% and 100%, respectively.
